Measured values published in patent US20070043013A1, “1,3 Disubstituted azetidine derivatives for use as ccr-3 receptor antagonists in the treatment of inflammatory and allergic diseases” (priority 2003, published 2007).

Columns and labels:
[1] = biological target: histamine H1 (Homo sapiens, UniProt P35367); test: histamine H1 antagonism
[2] = biological target: alpha-1 adrenergic receptor; test: alpha-1 adrenergic receptor radioligand binding assay ([125I]-HEAT, rat cerebral cortex membranes); conditions: radioligand used at 40 pM
Experimental: The inhibitory properties of agents of the invention on binding of the alpha-1 adrenergic receptor can be determined in the following assay:
Cerebral cortices from male Sprague-Dawley rats (175-200 g) are dissected and homogenised in 10 volumes of ice cold 0.32 M sucrose (containing 1 mM MgCl2 dihydrate and 1 mM K2HPO4) with a glass/Teflon homogeniser. The membranes are centrifuged at 1000×g for 15 miN, the pellet discarded and the centrifugation repeated. The supernatants are pooled and centrifuged at 18,000×g for 15 minutes. The pellet is osmotically shocked in 10 volumes of water and kept on ice for 30 minutes. The suspension is centrifuged at 39,000×g for 20 minutes, resuspended in Krebs-Henseleit buffer pH 7.4 (1.17 mM MgS04 anhydrous, 4.69 mM KCl, 0.7 mM K2HPO4 anhydrous, 0.11 M NaCl, 11 mM D-glucose and 25 mM NaHCO3) containing 20 mM Tris, and kept for 2 days at −20° C. The membranes are then thawed at 20-23° C., washed three times with Krebs-Henseleit buffer by centrifugation at 18,000×g for 15 minutes, left overnight at 4° C. and washed again three times. […]
The resulting membranes are subjected to a radioligand binding assay. […] Following drying of the plates for 3 h. at 50° C., 40 μl of Microscint 20 is added to each well, the plates incubated at room temperature for a further 20 minutes and the retained radioactivity quantified in a Packard TopCount NXT™ scintillation counter. […]

Sequence of histamine H1 (P35367 whole entry): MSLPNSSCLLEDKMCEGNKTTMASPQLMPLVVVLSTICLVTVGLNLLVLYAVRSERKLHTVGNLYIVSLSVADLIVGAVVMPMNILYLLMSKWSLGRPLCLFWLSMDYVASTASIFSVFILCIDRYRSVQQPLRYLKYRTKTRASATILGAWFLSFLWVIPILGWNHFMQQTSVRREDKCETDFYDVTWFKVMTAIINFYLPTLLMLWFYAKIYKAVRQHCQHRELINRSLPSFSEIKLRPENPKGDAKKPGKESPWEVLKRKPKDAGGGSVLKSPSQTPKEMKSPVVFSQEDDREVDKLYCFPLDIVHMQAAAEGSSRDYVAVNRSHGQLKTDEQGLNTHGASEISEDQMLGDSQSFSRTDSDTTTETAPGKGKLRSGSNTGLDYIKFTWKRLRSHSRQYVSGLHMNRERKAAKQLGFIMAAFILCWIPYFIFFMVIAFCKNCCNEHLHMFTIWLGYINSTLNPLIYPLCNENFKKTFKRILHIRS

histamine H1 antagonist activity [1]	Kd [2] [nM]	Structure (SMILES)
histamine H1 antagonists		CCc1nnc(NC(=O)N[C@@H]2CCCC[C@@H]2CN2CC(Oc3ccc(Cl)cc3)C2)s1 (racemic) [Example 31, (+/−)1-{(1R,2R)-2-[3-(4-Chloro-phenoxy)-azetidin-1-yl-methyl]-cyclohexyl}-3-(5-ethyl-[1,3,4]thiadiazol-2-yl)-urea]
histamine H1 antagonists		CCc1nnc(NC(=O)N[C@H](CO)CCN2CC(Sc3ccc(Cl)cc3)C2)s1 [Example 19, 1-{(S)-3-[3-(4-Chloro-phenylsulfanyl)-azetidin-1-yl]-1-hydroxymethyl-propyl}-3-(5-ethyl-[1,3,4]thiadiazol-2-yl)-urea]
	0.0589 ± 0.0187	O=C1c2ccccc2CCC1CNCCc1ccc(O)c(I)c1 (stereo not drawn) [[^125I]-HEAT]
